# What was measured:
# Format in all cases: in vivo
# [1] = system: Amaranthus retroflexus (AMARE); test: Post-emergence herbicidal efficacy at 80 g/ha, greenhouse pot test; settings: visual rating vs untreated control after about 3 weeks
# How it was run: (§1)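 Visual rating of activity versus untreated plants after about 3 greenhouse weeks, 0% meaning control-like and 100% meaning dead. Plants in sandy loam were sprayed at one-leaf stage (2–3 weeks post-sowing) with WP/EC compound suspensions or emulsions, 0.5% additive, 600 l/ha water.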
# Viola tricolor (VIOTR) [2] = test: as above; settings: visual rating vs untreated control after about 3 weeks
# How it was run: as §1
# [3] = system: Alopecurus myosuroides (ALOMY); test: as above; settings: visual rating vs untreated control after about 3 weeks
# How it was run: as §1
# [4] = system: Amaranthus retroflexus (AMARE); test: Post-emergence herbicidal efficacy at 320 g/ha, greenhouse pot test; settings: visual rating vs untreated control after about 3 weeks
# How it was run: (§2)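 Applied onto green plant parts as suspension or emulsion at a 600 L/ha water rate, containing 0.5% additive. Potted weeds in sandy loam were treated at one leaf and assessed visually versus controls about three weeks later.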
# Veronica persica (VERPE) [5] = test: as above; settings: 320 g/ha, visual rating vs untreated control after about 3 weeks
# How it was run: as §2
# Stellaria media (STEME) [6] = test: as above; settings: visual rating vs untreated control after about 3 weeks
# How it was run: as §2
# [7] = system: Echinochloa crus-galli (ECHCG); test: as above; settings: visual rating vs untreated control after about 3 weeks
# How it was run: as §2
# [8] = system: Alopecurus myosuroides (ALOMY); test: as above; settings: visual rating vs untreated control after about 3 weeks
# How it was run: as §2
# Poa annua (POAAN) [9] = test: Pre-emergence herbicide efficacy at 320 g/ha, greenhouse pot test; settings: visual scoring vs untreated control after about 3 weeks
# How it was run: (§3)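 Seeds sown in sandy loam, covered; formulated compound (WP or EC, 0.5% additive) applied to soil surface at 600 L/ha water; pots kept in greenhouse under good growth conditions; visual % damage scored at about 3 weeks relative to untreated.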
# [10] = system: Amaranthus retroflexus (AMARE); test: as above; settings: visual scoring vs untreated control after about 3 weeks
# How it was run: as §3
# Veronica persica (VERPE) [11] = test: as above; settings: visual scoring vs untreated control after about 3 weeks
# How it was run: as §3
# Stellaria media (STEME) [12] = test: as above; settings: visual scoring vs untreated control after about 3 weeks
# How it was run: as §3
# [13] = system: Abutilon theophrasti (ABUTH); test: as above; settings: visual scoring vs untreated control after about 3 weeks
# How it was run: as §3
# [14] = system: Digitaria sanguinalis (DIGSA); test: as above; settings: visual scoring vs untreated control after about 3 weeks
# How it was run: as §3
# [15] = system: Matricaria inodora (MATIN); test: as above; settings: visual scoring vs untreated control after about 3 weeks
# How it was run: as §3
# [16] = system: Echinochloa crus-galli (ECHCG); test: as above; settings: visual scoring vs untreated control after about 3 weeks
# How it was run: as §3
# [17] = system: Alopecurus myosuroides (ALOMY); test: as above; settings: visual scoring vs untreated control after about 3 weeks
# How it was run: as §3
# Setaria viridis (SETVI) [18] = test: as above; settings: visual scoring vs untreated control after about 3 weeks
# How it was run: as §3
# [19] = system: Amaranthus retroflexus (AMARE); test: Pre-emergence herbicide efficacy at 80 g/ha, greenhouse pot test; settings: visual scoring vs untreated control after about 3 weeks
# How it was run: (§4)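 Seeds were sown in pots and covered with soil, then the compound (WP or EC formulation) was sprayed onto the soil surface as an aqueous suspension or emulsion with 0.5% additive. Pots were kept in a greenhouse, and after about 3 weeks activity was scored visually versus untreated controls (100% = plants dead, 0% = like control).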
# Veronica persica (VERPE) [20] = test: as above; settings: visual scoring vs untreated control after about 3 weeks
# How it was run: as §4
# [21] = system: Abutilon theophrasti (ABUTH); test: as above; settings: visual scoring vs untreated control after about 3 weeks
# How it was run: as §4
# Viola tricolor (VIOTR) [22] = test: as above; settings: visual scoring vs untreated control after about 3 weeks
# How it was run: as §4
# [23] = system: Matricaria inodora (MATIN); test: as above; settings: visual scoring vs untreated control after about 3 weeks
# How it was run: as §4
# [24] = system: Polygonum convolvulus (POLCO); test: as above; settings: visual scoring vs untreated control after about 3 weeks
# How it was run: as §4
# [25] = system: Alopecurus myosuroides (ALOMY); test: as above; settings: visual scoring vs untreated control after about 3 weeks
# How it was run: as §4
# Setaria viridis (SETVI) [26] = test: as above; settings: visual scoring vs untreated control after about 3 weeks
# How it was run: as §4
# Poa annua (POAAN) [27] = test: Post-emergence herbicidal efficacy at 320 g/ha, greenhouse pot test; settings: visual rating vs untreated control after about 3 weeks
# How it was run: as §2
# [28] = system: Abutilon theophrasti (ABUTH); test: as above; settings: visual rating vs untreated control after about 3 weeks
# How it was run: as §2
# Bassia scoparia (KCHSC) = test: Pre-emergence herbicide efficacy at 320 g/ha, greenhouse pot test; settings: dosage 1280 g/ha in Table C6, visual scoring after about 3 weeks
# How it was run: as §3
Compound,Post-emergence efficacy against Viola tricolor (VIOTR) (Viola tricolor (VIOTR) [2]),Post-emergence efficacy against Amaranthus retroflexus (AMARE) [4],Post-emergence efficacy against Veronica persica (VERPE) (Veronica persica (VERPE) [5]),Post-emergence action against Stellaria media (STEME) (Stellaria media (STEME) [6]),Post-emergence efficacy against Echinochloa crus-galli (ECHCG) [7],Post-emergence efficacy against Alopecurus myosuroides (ALOMY) [8],Pre-emergence efficacy against Poa annua (POAAN) (Poa annua (POAAN) [9]),Pre-emergence efficacy against Amaranthus retroflexus (AMARE) [10],Pre-emergence efficacy against Veronica persica (VERPE) (Veronica persica (VERPE) [11]),Pre-emergence efficacy against Stellaria media (STEME) (Stellaria media (STEME) [12]),Pre-emergence efficacy against Abutilon theophrasti (ABUTH) [13],Pre-emergence efficacy against Matricaria inodora (MATIN) [15],Pre-emergence efficacy against Echinochloa crus-galli (ECHCG) [16],Pre-emergence efficacy against Setaria viridis (SETVI) (Setaria viridis (SETVI) [18]),Pre-emergence efficacy against Amaranthus retroflexus (AMARE) [19],Pre-emergence efficacy against Veronica persica (VERPE) (Veronica persica (VERPE) [20]),Pre-emergence efficacy against Viola tricolor (VIOTR) (Viola tricolor (VIOTR) [22]),Pre-emergence efficacy against Matricaria inodora (MATIN) [23],Pre-emergence efficacy against Setaria viridis (SETVI) (Setaria viridis (SETVI) [26]),other results
Cc1cc(C)c(-c2cc(C(F)(F)F)on2)c(Oc2ncc(Cl)cn2)n1 [Example I-7],90%,90%,100%,100%,90%,90%,100%,100%,100%,100%,100%,100%,100%,100%,100%,90%,100%,90%,100%,Post-emergence efficacy against Amaranthus retroflexus (AMARE) [1]: 80%; Post-emergence efficacy against Alopecurus myosuroides (ALOMY) [3]: 90%; Pre-emergence efficacy against Digitaria sanguinalis (DIGSA) [14]: 100%; Pre-emergence efficacy against Alopecurus myosuroides (ALOMY) [17]: 90%; Pre-emergence efficacy against Abutilon theophrasti (ABUTH) [21]: 100%; Pre-emergence efficacy against Polygonum convolvulus (POLCO) [24]: 90%; Pre-emergence efficacy against Alopecurus myosuroides (ALOMY) [25]: 100%
Cc1cc(C)c(-c2cc(C(F)F)no2)c(Oc2ccc(Cl)cn2)n1 [Example I-43],80%,100%,100%,100%,90%,90%,100%,100%,100%,100%,100%,90%,90%,100%,100%,90%,80%,90%,90%,Post-emergence efficacy against Poa annua (POAAN) (Poa annua (POAAN) [27]): 90%; Post-emergence efficacy against Abutilon theophrasti (ABUTH) [28]: 90%; Pre-emergence efficacy against Bassia scoparia (KCHSC) (Bassia scoparia (KCHSC)): 100%

# Reference: patent US20230303549A1, “SUBSTITUTED HETEROARYLOXYPYRIDINES, THE SALTS THEREOF AND THEIR USE AS HERBICIDAL AGENTS” (Bayer Aktiengesellschaft, priority 2020, published 2023)
